Assay type in all cases: cell-based
Assay [1] deals with ATCC25923 Staphylococcus aureus. The assay can be described thus: Broth microdilution test (BMD). As to conditions: clinical gold standard broth microdilution test. Background: Broth dilution looks for growth in wells or tubes with falling amounts of substance.
Assay [2] has the same test system. Briefly: MIC determined by the method (lensless imaging, Siamese neural network image similarity). As to conditions: incubation 2 hours to 4 hours at 37±2° C. An excerpt: (§1) The antimicrobial susceptibility test plate is a commonly used experimental equipment in antimicrobial susceptibility tests, which consists of multiple regularly arranged microwells. In practice, the antimicrobial susceptibility test plate is of different specifications, generally including a 96-well plate and a 128-well plate. In the implementation, the operator first prepares the bacterial suspension of a sample (that is, the to-be-tested bacterial strain); opens an antibiotic-coated antimicrobial susceptibility test plate, of which the microwells are pre-coated with the to-be-tested antibiotic with different gradient concentrations (that is, the preset gradient concentrations), where the concentration gradients of the antibiotic may be designed according to the rules of the clinical laboratory standard institute; adds the bacterial suspension to the microwells via a sample loading well; and places the antimicrobial susceptibility test plate on the imaging platform upon completing the sample loading. The processor controls the imaging platform to perform lensless imaging on the microwells at an initial time instant immediately after the sample is added (that is, the time instant of not completing inhibition) and a time instant immediately after the preset incubation time period (that is, the time instant of completing bacteria inhibition) and saves the data, so as to obtain the testing images and the test control images of the to-be-tested bacterial strain. Alternatively, the processor performs lensless imaging on the microwells and the control microwells at the time instant immediately after the preset incubation time period and saves the data.
(§2) For example, the determination result of the minimum inhibitory concentrations of two commonly used clinical quality control strains (ATCC25922 Escherichia coli and ATCC25923 Staphylococcus aureus) through the method according to the embodiments validates the feasibility of the method. Preparation of the bacterial strain includes: sub-culturing the strain for the second to fourth generations for standby; selecting colonies to prepare a bacterial suspension with a McFarland 0.5 standard; pre-coating antibiotic in the microwells of the antimicrobial susceptibility test plate (the concentration of the antibiotic is prepared according to CLSI standard); mixing the bacterial suspension with agarose at a concentration of 0.6% to 1.0% and a temperature of 37° C. to 40° C. in a dilution ratio of 1:300 to 1:500; adding the mixture sample respectively to the microwells by centrifugation; and then placing the antimicrobial susceptibility test plate in an incubator (37±2° C.) to incubate for 2 hours to 4 hours. Data collection includes: when the incubation is completed, placing the antimicrobial susceptibility test plate on the lensless imaging platform to take the images of the wells (that is, microwells) and recording the images corresponding to different antibiotic concentrations, where the minimum inhibitory concentration (MIC) determined by using the method in the embodiments is obtained based on the images. As shown in Table 1 and Table 2, it can be seen from the MIC results determined through the method and antimicrobial susceptibility results of the clinical gold standard broth microdilution test (BMD) that the MIC results determined through the method according to the embodiment are more accurate and reliable, and the MIC results are determined in 2 hours to 4 hours through the method according to the embodiment, which is more efficient.

For assay [3], the system named is ATCC25922 Escherichia coli. Described as above. As to conditions: incubation 2 hours to 4 hours at 37±2° C.
Source text: as §1, §2

Assay [4] deals with ATCC25922 Escherichia coli. The assay can be described thus: Broth microdilution test (BMD). The conditions noted are these: clinical gold standard broth microdilution test.

In brackets after ≈: the same amount, converted by molar mass.

What is called MIC is the least concentration at which growth counts as inhibited. For the molecule `CC1(C)S[C@@H]2[C@H](NC(=O)[C@H](N)c3ccccc3)C(=O)N2[C@H]1C(=O)O` [Ampicillin], the minimum inhibitory concentration (MIC) in assay [1] was determined as 1 µg/mL (≈ 2.86 µM); in assay [2], 1 µg/mL (≈ 2.86 µM); in assay [3], 4 µg/mL (≈ 11.4 µM); in assay [4] it was 4 µg/mL (≈ 11.4 µM).

`C[C@@H](O)[C@H]1C(=O)N2C(C(=O)O)=C(SCCN=CN)C[C@H]12` [Imipenem]: the MIC in assay [3] was 0.12 µg/mL (≈ 0.401 µM); in assay [4] it was 0.06 to 0.25 µg/mL (≈ 0.2 to 0.835 µM).

`CC[C@H]1OC(=O)[C@H](C)[C@@H](O[C@H]2C[C@@](C)(OC)[C@@H](O)[C@H](C)O2)[C@H](C)[C@@H](O[C@@H]2O[C@H](C)C[C@H](N(C)C)[C@H]2O)[C@](C)(O)C[C@@H](C)C(=O)[C@H](C)[C@@H](O)[C@]1(C)O` [Erythromycin]: the minimum inhibitory concentration (MIC) in assay [1] was 0.25 to 0.5 µg/mL (≈ 0.341 to 0.681 µM); in assay [2] it was 0.5 µg/mL (≈ 0.681 µM).

`CO[C@@]1(NC(=O)Cc2cccs2)C(=O)N2C(C(=O)O)=C(COC(N)=O)CS[C@@H]21` [Cefoxitin]: the MIC in assay [1] was 1 to 4 µg/mL (≈ 2.34 to 9.36 µM); in assay [2], 4 µg/mL (≈ 9.36 µM); in assay [3], 1 µg/mL (≈ 2.34 µM); in assay [4] it was 2 to 4 µg/mL (≈ 4.68 to 9.36 µM).

Regarding `NCC[C@H](O)C(=O)N[C@@H]1C[C@H](N)[C@@H](O[C@H]2O[C@H](CN)[C@@H](O)[C@H](O)[C@H]2O)[C@H](O)[C@H]1O[C@H]1O[C@H](CO)[C@@H](O)[C@H](N)[C@H]1O` [Amikacin], the figures for the MIC in assay [3] and in assay [4] were 4 µg/mL (≈ 6.83 µM) and 1 to 4 µg/mL (≈ 1.71 to 6.83 µM), respectively.

Gentamycin: in assay [3], the “The method (MIC)” value turned out to be 0.25 µg/mL. Besides, the “BMD (MIC)” value in assay [4] lay in the range of 0.25 to 0.5 µg/mL.

The values are drawn from US20260092300A1, “MINIMUM INHIBITORY CONCENTRATION RECOGNITION METHOD, APPARATUS AND DEVICE, AND STORAGE MEDIUM” (AUTOBIO LABTEC INSTRUMENTS CO., LTD., priority 2022, published 2026).
